{
  "source": "patent US4153709A",
  "about": "“N-Heterocyclic ureas as immune regulants” (Eli Lilly and Company, priority 1977, dated 1979)",
  "key": {"[1]": {"system": "Salmonella typhimurium G46 missense histidine-auxotroph", "test": "Qualitative in vitro prescreen for mutagenicity, G46 indicator (Table 22)", "settings": "200 mcg disc", "excerpt": "Filter paper discs 1/4\" were impregnated with 200 mcg of test compound using either H2 O or DMSO as solvent. The discs were placed on Petri dishes containing minimal media which had been individually seeded with one of the twelve tester strains. […] A uniform circle of colonies appear around the pad when a compound with mutagenic potential is present. The test compound forms a concentration gradient as it diffuses from the pad. Occasionally, there is a clear ring in close proximity to the pad surrounded by a uniform circle of revertant colonies which indicates a lethal mutation at high concentration of compound and nonlethal mutation at lesser concentration. A single pad thus allows one to test a compound over a wide range of concentrations. Histidine+ colonies were developed enough to read after 48 hr. incubation at 37° C. The plates were read as follows:\nA. background zone, if present, is measured in millimeters, if not, a negative is recorded (-).\nB. mutant zone is measured in millimiters, if present; if not, a negative (-) is recorded.\nC. the mutation frequency can be estimated from density of mutant colonies as follows:\n1. Low frequency--few colonies\n2. Moderate frequency--many colonies\n3. High frequency--dense ring of colonies\n4. No colonies recorded (-)"}, "[2]": {"system": "Salmonella typhimurium G46 missense histidine-auxotroph", "test": "Host mediated assay (in vivo mutagenicity), G46 indicator (Table 22)", "design": "species or system Salmonella typhimurium in Cox white Swiss male mice", "settings": "s.c.", "experimental": "Cox white Swiss male mice 25-30 grams were used in all in vivo tests.\nA. Drug Administration: Appropriate solvents were used where applicable with a solvent control run within each test. […] The organisms were grown to stationary phase, then diluted with normal saline to give an inoculum near 1×10^8 organisms per milliliter. The abdominal area of the drug-treated mouse was swabbed with alcohol and two milliliters of bacterial culture were injected into the abdominal cavity of the mouse. The mice were returned to their cages for 3-4 hours.\nC. Autopsy and Recovery: The mice were sacrificed individually by cervical dislocation prior to each autopsy. The abdominal areas were soaked with ethanol. The peritoneum was bared and 2.5 ml. of sterile normal saline was injected into the peritoneal cavity using a sterile (3-ml. plastic syringe with a 20-gauge needle. After insertion, the needle is turned bevel up and the saline was expelled into the cavity; while the needle remains through the peritoneum, keeping the point of the needle in sight pressed against the peritoneal wall, the abdomen of the mouse was massaged to mix contents. The saline wash was removed from the abdominal cavity back into the syringe. The needle was removed and the contents expelled into an appropriately marked tube and iced 4° C.\nD. Dilution and Plating: One-ml. samples were plated at 10° dilution on all mice to determine revertants (histidine+).\nA one-milliliter sample from the untreated dilutions from control animals is plated 10^-6, 10^-7, and 10^-8 dilutions with excess histidine to determine mutable population (histidine-)."}, "[3]": {"system": "antibody to sheep red blood cells", "test": "75 percent reduction of control antibody titer in mice by subcutaneous, percutaneous and oral routes (Table 16)", "format": "in vivo, male Swiss mice", "settings": "Mus musculus, Erythrocyte, × 10 daily doses commencing 3 days before antigen i.v.", "experimental": "Subcutaneous, percutaneous, and oral activity have been achieved as indicated in Table 16 which follows employing representative compounds from the above entitled application. […] Except as indicated, the tests were performed using groups of five 20-gram male Swiss mice injected with 5×10^7 sheep red blood cells intravenously for each drug level. Ten (daily) administrations of drug were made commencing three days prior to red blood cell injection. On the day following the final treatment (7 days after red blood cell injection) the animals were bled by cardiac puncture, the sera from each five-mouse-group were pooled, and antibody titers of these serum pools and corresponding serum pools from control (untreated) mouse groups were determined. The results are expressed as the minimum drug dose effecting 75 percent reduction of control antibody titer: […]"}, "[4]": {"system": "twelve histidine-auxotrophs of Salmonella typhimurium", "format": "cell-based", "experimental": "The in vivo and in vitro mutagenic potential of 1-(6-methoxy-2-benzothiazolyl)-3-phenyl-urea was negative when tested versus the twelve histidine-auxotrophs of Salmonella typhimurium at a level of 300 mg/kg in vivo and 750 mcg/ml in vitro. Imuran and Cytoxan, compounds with immunosuppressive activity; Streptozotacin, N-nitrosodimethylamine (DMNA) and trimethylenemelamine (TEM) known mutagens and/or carcinogens; and Acetylsalicylic Acid (ASA) were used as control compounds.\nThe plates were read as follows:\n(§1) Compounds found active in the qualitative test were further tested. The culture to be tested was grown to stationary phase in tryptone yeast broth and then diluted to a viable count of about 9×10^7 organisms per milliliter.\nEleven log4 dilutions of the test compound were made covering a range that would allow survival of nonlethal mutants. […] Final drug concentrations were calculated from 4-ml. volumes (3 ml. drug dilution +1 ml. test organism). Two of the \"0\" drug tubes were immediately plated at 10° dilution in minimal medium and 10^-5, 10^-6, 10^-7 dilutions in medium containing excess histidine (40 mcg/ml.) Spontaneous revertants (histidine+) were detected in the 10° dilution. Mutable population (histidine-) were detected in the 10^-5, 10^-6, and 10^-7 dilutions. […] All minimal media plates were counted. […]"}, "[5]": {"system": "graft versus host reaction", "test": "Graft versus host (GVH) reaction, spleen weight (Tables 20, 21)", "format": "in vivo, mice (C57BL donors, F1 hybrid C57BL×C3H recipients)", "experimental": "In this determination, […] (C57BL) mouse spleen cells are injected into mice of an F1 hybrid strain (C57BL×C3H). […] The injected cells, however, mount a reaction to the recipient's tissues due to the foreign C3H-derived antigens. As a consequence, the recipient's spleen becomes enlarged. Immunosuppressive therapy prevents or reduces this enlargement. Thus, spleen weights provide a measure of the GVH reaction and its reduction under immunosuppression.\nTreated and GVH control animals receive an intraperitoneal injection of 1.2×10^9 splenic lymphocytes from the C57 donors. Spleens are weighed ten days later. Spleen weights derived from groups of recipient mice receiving genetically homologous, i.e., syngeneic cells (C57BL×C3H) provide normal control values for calculating percent inhibition in drug-treated groups. For example, mice given 13 daily topical doses of 1-(4,5,6,7-tetra-hydro-2-benzothiazolyl)-3-phenyl urea show a 62% reduction in GVH reaction relative to controls, as set forth in Table 20.\nUsing this procedure, three compounds from the above useful in the processes of this invention have been compared with several reference immunosuppressive drugs. Treatment levels defining the 50 percent inhibitory dose have been determined."}, "[6]": {"system": "antibody to sheep red blood cells", "test": "Oral immunoregulating activity in marmosets (Table 17)", "format": "in vivo", "experimental": "The animals in the treated group received 10 daily 100 mg/kg doses of the drug by oral gavage. On the 4th treatment day, these animals and a similar group of controls were given intraperitoneal injections of 1×10^9 sheep red blood cells. On the 12th day following antigen injection, serum levels of antibody were determined.\n*Notation: Day 0 = day of antigen injection, Day -1 = day previous, Day +"}, "[7]": {"system": "Salmonella typhimurium G46 missense histidine-auxotroph", "format": "cell-based", "settings": "750 mcg/ml", "experimental": "as §1\nEleven log4 dilutions of the test compound were made covering a range that would allow survival of nonlethal mutants. The dilutions were made in Spizizen's minimal media with minute amounts of histidine and biotin (20 nM) each in […]. tubes. Each tube contained 3 ml. after dilution. Replicate 1 ml. aliquots of test organism were added to each tube including six \"0\" drug tubes. Final drug concentrations were calculated from 4-ml. volumes (3 ml. drug dilution +1 ml. test organism). Two of the \"0\" drug tubes were immediately plated at 10° dilution in minimal medium and 10^-5, 10^-6, 10^-7 dilutions in medium containing excess histidine (40 mcg/ml.) Spontaneous revertants (histidine+) were detected in the 10° dilution. Mutable population (histidine-) were detected in the 10^-5, 10^-6, and 10^-7 dilutions. All remaining dilutions were incubated in a Dubonoff shaker at 37° C. for 4 hr., then iced at 4° C. […] A 1-ml. aliquot from each \"0\" control was also plated at 10^-6, 10^-7, and 10^-8 dilutions in media with excess histidine to detect growth of mutable population (histidine-); normally there are 3-4 generations of the mutable population. All minimal media plates were counted. A dose response increase in revertants above spontaneous background indicated mutagenic potential of a test compound. […] Lethality has occurred to both populations, histidine+ and histidine-, at the same compound levels in all drugs tested to date.\nThe results are recorded as mutants test/mutants control."}, "[8]": {"settings": "10 daily 100 mg/kg doses oral, individual marmoset, 100 mg/kg"}},
  "note": "“And” between values parts separate entries of the source, which are not always exact repeats. Equal values may be shown once. Read-outs that look alike come from different tables or passages of the source.",
  "data": [
    {"smiles": "COc1ccc2nc(NC(=O)Nc3ccccc3)sc2c1", "note": "[Table 11: phenyl, 6-CH3 O, S, 1-(6-methoxy-2-benzothiazolyl)-3-phenyl urea]", "values": [
      {"measurement": "IN VITRO QUALITATIVE ACTIVITY", "setting": "[1]", "value": "N"},
      {"measurement": "IN VIVO mutants test/mutants control", "setting": "[2]; 3 mg/kg", "value": ".95"},
      {"measurement": "IN VIVO mutants test/mutants control", "setting": "[2]; 30 mg/kg", "value": ".95"},
      {"measurement": "IN VIVO mutants test/mutants control", "setting": "[2]; 300 mg/kg, MT/MC of 3 would indicate mutagenic potential", "value": 1.2},
      {"measurement": "IN VIVO mutants test/mutants control", "setting": "[2]; .3 mg/kg", "value": 1.25},
      {"measurement": "minimal effective dose", "setting": "[3]; sc, subcutaneous, read-out: Lowest Dose Producing 75% Immunosuppression, Subcutaneous", "value": "0.8 to 1.6", "unit": "mg/kg"},
      {"measurement": "minimal effective dose", "setting": "[3]; oral, read-out: Lowest Dose Producing 75% Immunosuppression, Oral", "value": "12.5 to 25", "unit": "mg/kg"},
      {"measurement": "minimal effective dose", "setting": "[3]; percutaneous, read-out: Lowest Dose Producing 75% Immunosuppression, Percutaneous", "value": 12.5, "unit": "mg/kg"},
      {"measurement": "in vitro mutagenic potential", "setting": "[4]; 750 mcg/ml", "value": "negative"},
      {"measurement": "mutagenicity for point mutations (overall statement)", "setting": "[4]; histidine- auxotrophs of Salmonella typhimurium", "value": "non-mutagenic"},
      {"measurement": "Percent GVH Inhibition", "setting": "[5]; 1 mg/kg × 13, s.c.", "value": 22, "unit": "%"},
      {"measurement": "Percent GVH Inhibition", "setting": "[5]; 2 mg/kg × 13, s.c.", "value": 58, "unit": "%"},
      {"measurement": "detectable antibody response", "setting": "[6]; 10 daily 100 mg/kg doses by oral gavage, 12th day following antigen, control four out of five", "value": "none of the treated marmosets showed a detectable response"},
      {"measurement": "Weight Change (%) Day +6 to +19", "setting": "[6]; [8]", "value": "-6.8% and +9.1% and +6.0% and +5.7%"},
      {"measurement": "Weight Change (%) Day -7 to +6", "setting": "[6]; [8]", "value": "-18.8% and -6.2% and -21.4% and -5.7% and -8.2%"},
      {"measurement": "Antibody Titer (reciprocal) Day +12", "setting": "[6]; 10 daily 100 mg/kg doses oral, individual marmoset, Day 0 = antigen injection", "value": "< 5"},
      {"measurement": "animals gaining weight by the 19th day", "setting": "[6]; 10 daily 100 mg/kg doses oral, treated group", "value": "four of the five animals were gaining weight"},
      {"measurement": "IN VITRO QUANTITATIVE MT/MC", "setting": "[7]", "value": ".90"}
    ]}
  ]
}
